Laboratory results reported in PMC8270334, “Design, Sustainable Synthesis and Biological Evaluation of a Novel Dual α2A/5-HT7 Receptor Antagonist with Antidepressant-Like Properties” (Molecules, 2021).

Tests used:
Albino Swiss mice [1] = assay: spontaneous locomotor activity; assay type: in vivo; conditions: ip
Method: Adult male Albino Swiss mice (CD-1, 8 weeks old, 25–30 g: Jagiellonian University Medical College, Krakow, Poland) were used in the study. Animals were housed in groups of 8 in a transparent plastic cage (382 × 220 × 150 mm) at room temperature (22 ± 2 °C), on a 12 h light/dark cycle with ad libitum access to food and water. Mice were handled for one week before starting the experimental procedures. The separate groups of animals were used in the forced swim test and in the locomotor studies. All studies were approved by the Institutional Animal Care and Ethics Committee of the Jagiellonian University (approval no.: 80/2015).
Tested compounds were dissolved with 1% Tween 80. […] The control animals were given ip injections of the 2% DMSO in 1% Tween 80 (vehicle). The volume of vehicle or drug solutions was 10 mL/kg.
Locomotor activity was recorded with an Opto M3 multichannel activity monitor, photoresistor actometers connected to a counter for the recording of light-beam interruptions (MultiDevice Software v1.3, Columbus Instruments, Columbus, OH, USA). The mice, after being placed into the cages individually, had their activity evaluated between the 2nd and the 6th minute. The chosen time period corresponded with the time interval considered in the FST. Spontaneous locomotor activity was evaluated as the distance travelled plus the movements of climbing by animals.

human 5-HT7b receptor = target: T1, human 5-HT7b receptor (Homo sapiens, UniProt P34969); assay: radioligand binding, [3H]-5-CT displacement at 5-HT7R in HEK293 cells; conditions: read-out: Ki [nM] ± SEM 5-HT7
T1 construct: expressed in transfected cells; host or cells: HEK293
T1 sequence (P34969 1-432): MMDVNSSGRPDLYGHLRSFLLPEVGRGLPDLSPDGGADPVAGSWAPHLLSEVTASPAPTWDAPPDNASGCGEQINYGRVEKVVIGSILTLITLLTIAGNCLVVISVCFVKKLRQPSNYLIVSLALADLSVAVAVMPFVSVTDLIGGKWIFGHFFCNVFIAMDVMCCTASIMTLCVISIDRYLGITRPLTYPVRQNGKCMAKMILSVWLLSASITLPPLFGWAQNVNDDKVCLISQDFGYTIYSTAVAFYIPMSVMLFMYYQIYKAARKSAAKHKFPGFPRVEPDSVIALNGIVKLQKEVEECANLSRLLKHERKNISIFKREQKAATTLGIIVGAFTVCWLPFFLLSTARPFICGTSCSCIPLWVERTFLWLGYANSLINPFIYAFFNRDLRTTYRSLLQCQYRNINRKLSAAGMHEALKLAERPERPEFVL
Method: (§1) All experiments were performed using HEK293 cells stably expressing human 5-HT1A, 5-HT6, 5-HT7b, and D2L receptors or CHO-K1 cells with a plasmid containing the human 5-HT2A receptor coding sequence (PerkinElmer, Waltham, MA, USA), according to previously reported procedures. Cells were cultured in 150 cm^2 flasks and, after reaching a 90% confluence, were washed with PBS and the centrifugated (200 g) in PBS containing 0.1 mM EDTA and 1 mM dithiothreitol. Cell pellets were subsequently homogenized (in Ultra Turrax tissue homogenizer) and centrifugated twice (35,000× g for 15 min at 4 °C), with 15 min incubation at 37 °C between the centrifugations. All assays were incubated in dedicated buffers and in a total volume of 200 µL in 96-well microtitre plates for 1 h at 37 °C, except for 5-HT1AR and 5-HT2AR that was incubated for 1 h at room temperature. The process of equilibration is terminated by rapid filtration through Unifilter-96 (PerkinElmer) plates with a 96-well cell harvester and radioactivity retained on the filters was quantified on a Microbeta plate reader (PerkinElmer, USA). For displacement studies, the following assay samples containing the proper radioligand were used: 2.5 nM [^3H]-8-OH-DPAT (PerkinElmer, #NET929001MC) for 5-HT1AR; 1 nM [^3H]-ketanserin (PerkinElmer, #NET791250UC) for 5-HT2AR; 2 nM [^3H]-LSD (PerkinElmer, #NET638250UC) for 5-HT6R; and 0.8 nM [^3H]-5-CT (PerkinElmer, #NET1188U100UC) for 5-HT7R or 2.5 nM [^3H]-raclopride (PerkinElmer, #NET975001MC) for D2LR. Non-specific binding was determined using 10 μM 5-HT for 5-HT1AR and 5-HT7R, 20 μM mianserin for 5-HT2AR, 10 μM methiothepine for 5-HT6R, and 10 μM haloperidol for D2LR. […] Results were expressed as means of at least three separate experiments.

human 5-HT6 receptor = target: T2, human 5-HT6 receptor (Homo sapiens, UniProt P50406); assay: radioligand binding, [3H]-LSD displacement at 5-HT6R in HEK293 cells; conditions: HEK-293 cells, ± SEM
T2 construct: expressed in transfected cells; host or cells: HEK293
T2 sequence (P50406 whole entry): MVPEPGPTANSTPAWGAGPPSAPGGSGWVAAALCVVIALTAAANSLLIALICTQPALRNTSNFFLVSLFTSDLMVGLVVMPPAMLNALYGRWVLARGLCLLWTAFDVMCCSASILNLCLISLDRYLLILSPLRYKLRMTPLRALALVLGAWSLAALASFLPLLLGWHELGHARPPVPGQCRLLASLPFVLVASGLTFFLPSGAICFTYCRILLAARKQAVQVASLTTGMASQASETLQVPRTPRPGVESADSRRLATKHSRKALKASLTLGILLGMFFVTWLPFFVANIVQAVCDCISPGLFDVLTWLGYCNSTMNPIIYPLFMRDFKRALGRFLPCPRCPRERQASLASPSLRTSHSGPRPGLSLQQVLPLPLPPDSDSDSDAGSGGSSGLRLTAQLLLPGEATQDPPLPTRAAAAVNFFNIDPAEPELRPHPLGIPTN
Method: as §1

α2A-adrenergic receptor = target: T3, α2A-adrenergic receptor (Homo sapiens, UniProt P08913); assay: intrinsic activity (antagonist) assay, Tango ADRA2A-bla U2OS DA cells, FRET; assay type: cell-based; conditions: for Kb: antagonist, ADRA2A-bla U2OS DA cells, ± SEM, two independent experiments; for functional selectivity for α2A-AR over α2B-AR subtype: from Kb values α2A vs α2B
T3 construct: host or cells: U2OS (Tango ADRA2A-bla U2OS DA)
T3 sequence (P08913 1-465): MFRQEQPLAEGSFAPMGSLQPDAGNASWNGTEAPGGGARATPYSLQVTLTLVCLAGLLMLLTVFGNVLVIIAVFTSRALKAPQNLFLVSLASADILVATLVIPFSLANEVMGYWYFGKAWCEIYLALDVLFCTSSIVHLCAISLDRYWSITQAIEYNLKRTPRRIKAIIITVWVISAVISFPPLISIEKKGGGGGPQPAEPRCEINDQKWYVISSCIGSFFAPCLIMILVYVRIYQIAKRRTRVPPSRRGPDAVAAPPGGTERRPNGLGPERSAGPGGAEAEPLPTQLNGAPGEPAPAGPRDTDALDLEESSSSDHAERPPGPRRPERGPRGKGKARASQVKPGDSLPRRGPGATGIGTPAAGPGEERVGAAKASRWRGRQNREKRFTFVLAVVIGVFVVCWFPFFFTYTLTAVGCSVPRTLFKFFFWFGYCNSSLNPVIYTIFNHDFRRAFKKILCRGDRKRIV
Method: Intrinsic activity assays for α2A-adrenergic receptor were performed according to the instructions of the manufacturer of the assay kit containing the ready to use cells with stable expression of the α2A-adrenoceptor (Invitrogen, Life Technologies, Waltham, MA, USA). Tango™ ADRA2A-bla U2OS DA cells (10,000 cells/well) were plated in a 384-well format and incubated for 20 h. […] Cells were then loaded with LiveBLAzer™-FRET B/G substrate for 2 h.

Albino Swiss mice [2] = assay: forced swim test; assay type: in vivo; conditions: ip; for shortening of immobility in FST in comparison to control: dose range 1–8 mg/kg; for shortening of immobility in FST in comparison to control / active dose in FST (antidepressant-like effect): 30 min before test
Method: Adult male Albino Swiss mice (CD-1, 8 weeks old, 25–30 g: Jagiellonian University Medical College, Krakow, Poland) were used in the study. Animals were housed in groups of 8 in a transparent plastic cage (382 × 220 × 150 mm) at room temperature (22 ± 2 °C), on a 12 h light/dark cycle with ad libitum access to food and water. Mice were handled for one week before starting the experimental procedures. The separate groups of animals were used in the forced swim test and in the locomotor studies. All studies were approved by the Institutional Animal Care and Ethics Committee of the Jagiellonian University (approval no.: 80/2015). […] Tested compounds were dissolved with 1% Tween 80. […] The control animals were given ip injections of the 2% DMSO in 1% Tween 80 (vehicle). The volume of vehicle or drug solutions was 10 mL/kg. The experiment was performed on mice according to the method previously described. Mice were forced to swim individually in the glass cylinders (height 25 cm, diameter 10 cm) filled with water at 24 ± 1 °C to a depth of 10 cm and left there for 6 min. Following a 2 min habituation period, total time spent immobile was recorded over the next 4 min. The animal was regarded as immobile when it remained floating passively in the water, making only small movements to keep its head above the water.

[3] = doses effective in the FST (6: 4, 8 mg/kg; mirtazapine: 16 mg/kg)

Row | SMILES | influence on spontaneous locomotor activity (sedation) (Albino Swiss mice [1]; [3]) | Ki (human 5-HT7b receptor) [nM] | Ki (human 5-HT6 receptor) [nM] | Kb (α2A-adrenergic receptor) [nM] | functional selectivity for α2A-AR over α2B-AR subtype (α2A-adrenergic receptor) | shortening of immobility in FST in comparison to control (Albino Swiss mice [2]) | active dose in FST (antidepressant-like effect) (Albino Swiss mice [2]) [mg/kg] | influence on spontaneous locomotor activity (sedation) (Albino Swiss mice [1]; 1 mg/kg) | influence on spontaneous locomotor activity (sedation) (Albino Swiss mice [1]; higher doses (above 1 mg/kg)) | effect in the FST (Albino Swiss mice [2]; doses of 4 and 8 mg/kg)
1 | CC1(C)Cc2cccc(OCCN3CCC(NS(=O)(=O)c4ccc(F)cc4)CC3)c2O1 [Compound 6, 4-Fluoro-N-{1-[2-(2,2-dimethyl-2,3-dihydrobenzofuran-7-yloxy)ethyl]piperidin-4-yl} benzenesulfonamide] | induced sedation | 35 ± 22 | 839 ± 70 | 12 ± 4 | up to seven | about 25% | 8 | – | – | –
2 | CC1(C)Cc2cccc(OCCN3CCC(NS(=O)(=O)c4cc(Cl)ccc4F)CC3)c2O1 [Compound 8, 5-Chloro-2-fluoro-N-{1-[2-(2,2-dimethyl-2,3-dihydrobenzofuran-7-yloxy)ethyl]piperidin-4-yl}benzenesulfonamide] | no influence on the spontaneous locomotor activity | 30 ± 11 | 873 ± 91 | 40 ± 11 | four | about 25% | 4 | – | – | –
3 | CC1(C)Cc2cccc(OCCN3CCC(NS(=O)(=O)c4cncc5ccccc45)CC3)c2O1 [Compound 13, 4-Isoquinoline-N-{1-[2-(2,2-dimethyl-2,3-dihydrobenzofuran-7-yloxy)ethyl]piperidin-4-yl}sulfonamide] | – | 91 ± 25 | 1120 ± 114 | 31 ± 8 | did not show any preference | about 25% | 1 | without affecting locomotor activity | caused sedation | lack of pharmacological effect
